One data set concerns CPA-induced rat pollakiuria model. Put plainly: Anti-pollakiuria effect in cyclophosphamide (CPA)-induced rat pollakiuria model. It is filed as in vivo. The note with it: oral administration, male SD rats, CPA 150 mg/kg i.p., urination frequency over 3 hours, probit method. As for the experimental part:
1. Anti-Pollakiuria Effect in Cyclophosphamide (CPA)-Induced Rat Pollakiuria Model
To 7-week old male SD rats, 150 mg/kg of CPA was intraperitoneally administered, and the rats were starved for 24 hours, and then used for the test. Thirty minutes after the oral administration of the test substance, physiological saline (30 ml/kg) was orally administered, the rats were put into a metabolism cage for rats, and then frequency of urination was counted for 3 hours. For the counting of the frequency of urination, a weighing dish hung from an FD pickup was disposed at a urine outlet at the lower part of the metabolism cage, and frequency of urination was obtained based on change of urination volume obtained by a polygraph apparatus. To a control (treated with CPA) and an intact control (no treatment), the solvent was orally administered, and frequency of urination was counted in the same manner. Improvement rate of pollakiuria induced by the CPA treatment relative to the control was calculated in accordance with the following equation, and ED50 value was further calculated by the probit method based on the improvement rate at each dose. Improvement rate (%)=(Urination frequency of control−Urination frequency observed with test substance)/(Urination frequency of control−Urination frequency of intact control)×100
As a reminder, the ED50 is the midpoint of the dose-response relation. A lower ED50 goes with an effect at a small dose. The molecule `C[C@H](C(=O)O)c1ccc(/C=C2\SCC[C@@H]2O)cc1` [Example 19-C, (2S,3′S)-2-{4-[3-Hydroxythiolan-(Z)-2-ylidenemethyl]phenyl}propionic Acid] had a 50% effective dose (ED50) of 0.1 mg/kg.

Consider `CC(C(=O)O)c1ccc(CC2CCCC2=O)cc1` (centres unmarked) [Loxoprofen-Na, reference compound], for which the 50% effect level (ED50) was put at a dose of 1.8 mg/kg.

Another data set concerns PGE2 production in A549 cells. Put plainly: Suppressing action against PGE2 production in human cultured cells (A549, IL-1β-induced cyclooxygenase 2, arachidonic acid added). It is filed as cell-based. The note with it: 10 μM test substance, PGE2 in medium by EIA, duplicate. As for the experimental part:
In Vitro Evaluation Method (Suppressing Action Against PGE2 Production in Human Cultured Cells)
A549 cells were inoculated on a 24-well plate (10^5 cells/ml/well), and cultured for 1 day in the Ham's F-12 medium containing 10% fetal bovine serum (FBS). The medium was removed, and the cells were washed with Dulbecco's phosphate buffered saline (PBS), and then cultured for 3 days in the Ham's F-12 medium containing 1 ng/ml of a recombinant human IL-1β and FBS to induce cyclooxygenase 2. After the medium was removed, and the cells were washed with PBS, 0.99 ml of the Ham's F-12 mediums containing a test substance (dissolved in dimethyl sulfoxide at a final concentration of 1% and added) and […] L-glutathione reduced was added to the cells, and the cells were incubated at 37° C. for 30 minutes in a 5% CO2 incubator. To the culture was added 10 μl of a 0.5 mg/ml solution of arachidonic acid in ethanol (final concentration: 5 μg/ml), and the reaction was performed by incubating the culture at 37° C. and 50 rpm for 30 minutes. After completion of the reaction, the medium was immediately collected, and the PGE2 concentration in the medium was measured by using Prostaglandin E2 Express EIA Kit (Cayman Chemical). Dimethyl sulfoxide not containing the test substance was added to a blank and a control, and ethanol not containing arachidonic acid was added to the blank to perform the reaction. The experiment was performed in duplicate. The suppression rate of the test substance based on the control was calculated by using the following equation. Suppression rate (100%)=100×[1−(PGE2 concentration in medium containing test substance−PGE2 concentration in medium of blank)/(PGE2 concentration in medium of control−PGE2 concentration in medium of blank)]
Turning to `CC(C(=O)O)c1ccc(CC2SCCC2O)cc1` (single isomer, unassigned) [Example 27-A, 2-[4-(3-Hydroxythiolan-2-ylmethyl)phenyl]propionic Acid], the “PGE2 production suppression rate at 10 μM, Suppression rate (%)” value (from here on “PGE2 production suppression rate … (%)”) turned out to be 40.0%.

With `CC(C(=O)O)c1ccc(CC2SCCC2O)cc1` (single isomer, unassigned) [Example 27-B, 2-[4-(3-Hydroxythiolan-2-ylmethyl)phenyl]propionic Acid], the “PGE2 production suppression rate … (%)” value is on record as 76.3%. `CC(C(=O)O)c1ccc(CC2CCCC2O)cc1` (centres unmarked) [LXP-2a, reference compound]: the “PGE2 production suppression rate … (%)” value is 92.0%.

The data set is the same for the next values; noted with them: Homo sapiens, A549, 0.5 h, 10 μM test substance, PGE2 in medium by EIA, duplicate, read-out: PGE2 production suppression rate at 10 μM, Suppression rate (%).
With `CC(C(=O)O)c1ccc(/C=C2\SCCCC2=O)cc1` (centres unmarked) [Example 4, 2-[4-(3-Oxothian-2-ylidenemethyl)phenyl]propionic Acid], the inhibition at 10 µM was 77.8%. Same read-out and setting: the figure for `CC(C(=O)O)c1ccc(/C=C2\SCCCC2O)cc1` (centres unmarked) [Example 5, 2-[4-(3-Hydroxythian-2-ylidenemethyl)phenyl]propionic Acid] is 68.4%; for `CC(C(=O)O)c1ccc(CC2CSCC2=O)cc1` (centres unmarked) [Example 8, 2-[4-(4-Oxothiolan-3-ylmethyl)phenyl]propionic Acid] it is 66.4%. For `CC(C(=O)O)c1ccc(CC2CSCC2O)cc1` (centres unmarked) [Example 9-A, 2-[4-(4-Hydroxythiolan-3-ylmethyl)phenyl]propionic Acid], the inhibition at 10 µM amounted to 34.7%. Still for that read-out and setting: the figure for `CC(C(=O)O)c1ccc(CC2C=CSC2)cc1` (centres unmarked) [Example 10, 2-[4-(2,3-Dihydrothiophen-3-ylmethyl)phenyl]propionic Acid] is 69.4%; for `CC(C(O)=S)c1ccc(CC2CSCC2=O)cc1` (centres unmarked) [Example 11, 2-[4-(4-Oxothiolan-3-ylmethyl)phenyl]thiopropionic Acid] it is 49.2%. Turning to `CC(C(=O)OC(C)(C)C)c1ccc(/C=C2\SCCC2=O)cc1` (centres unmarked) [Example 13, tert-Butyl 2-{4-[3-oxothiolan-(Z)-2-ylidenemethyl]phenyl}propionate], the inhibition at 10 µM was 48%. For the molecule `CC(C(=O)O)c1ccc(/C=C2\SCCC2=O)cc1` (centres unmarked) [Example 14, 2-{4-[3-Oxothiolan-(Z)-2-ylidenemethyl]phenyl}propionic Acid], the inhibition at 10 µM amounted to 98.5%.

Regarding `CCOC(=O)C(C)c1ccc(/C=C2\SCCC2=O)cc1` (centres unmarked) [Example 15, Ethyl 2-{4-[3-oxothiolan-(Z)-2-ylidenemethyl]phenyl}propionate], the inhibition at 10 µM was determined as 36.9%. Same read-out and setting: to `CC(C(=O)O)c1ccc(/C=C2\SCCC2O)cc1` (centres unmarked) [Example 18, 2-{4-[3-Hydroxythiolan-(Z)-2-ylidenemethyl]phenyl}propionic Acid] belongs 99.5%; to `C[C@H](C(=O)O)c1ccc(/C=C2\SCC[C@@H]2O)cc1` [Example 19-C, (2S,3′S)-2-{4-[3-Hydroxythiolan-(Z)-2-ylidenemethyl]phenyl}propionic Acid], 101%; to `C[C@@H](C(=O)O)c1ccc(/C=C2\SCC[C@@H]2O)cc1` [Example 19-D, (2R,3′S)-2-{4-[3-Hydroxythiolan-(Z)-2-ylidenemethyl]phenyl}propionic Acid], 44.5%. `C[C@H](C(=O)O)c1ccc(/C=C2/C=CCS2)cc1` [Example 20, (2S)-2-[4-(2,5-Dihydrothien-(Z)-2-ylidenemethyl)phenyl]propionic Acid]: the inhibition at 10 µM turned out to be 94.5%. Turning to `CC(C(=O)O)c1ccc(/C=C2\CSCC2O)cc1` (centres unmarked) [Example 22, 2-[4-(4-Hydroxythiolan-3-ylidenemethyl)phenyl]propionic Acid], the inhibition at 10 µM was 99.7%. Turning to `CC(C(=O)O)c1ccc(/C=C2\CSCC2=O)cc1` (centres unmarked) [Example 23, 2-[4-(4-Oxothiolan-3-ylidenemethyl)phenyl]propionic Acid], the inhibition at 10 µM is 102%. The same measure, in the same setting: to `CC(C(=O)O)c1ccc(/C=C2\SCCC2(F)F)cc1` (centres unmarked) [Example 25, 2-[4-(3,3-Difluorothiolan-2-ylidenemethyl)phenyl]propionic Acid] belongs 73.3%; to `CC(C(=O)O)c1ccc(CC2SCCC2=O)cc1` (centres unmarked) [Example 26, 2-[4-(3-Oxothiolan-2-ylmethyl)phenyl]propionic Acid], 79.6%. Same read-out and setting: the figure for `O=C(O)Cc1ccc(/C=C2\SCCC2=O)cc1` [Example 29, 4-(3-Oxothiolan-2-ylidenemethyl)phenylacetic Acid] is 96.8%; for `O=C(O)Cc1ccc(/C=C2\SCCC2O)cc1` (centres unmarked) [Example 31, 4-(3-Hydroxythiolan-2-ylidenemethyl)phenylacetic Acid] it is 85.9%. Still for that read-out and setting: to `CC(C(=O)O)c1ccc(/C=C2\CCSC2=O)cc1` (centres unmarked) [Example 35, 2-[4-(2-Oxothiolan-3-ylidenemethyl)phenyl]propionic Acid] belongs 44%; to `CC(C(=O)O)c1ccc(/C=C2/CCCS2)cc1` (centres unmarked) [Example 37, 2-[4-(Thiolan-2-ylidenemethyl)phenyl]propionic Acid], 89.7%; to `COc1cc(/C=C2\SCCC2O)ccc1C(C)C(=O)O` (centres unmarked) [Example 53, 2-[4-(3-Hydroxythiolan-2-ylidenemethyl)-2-methoxyphenyl]propionic Acid], 72.8%. Regarding `CC(C(=O)O)c1ccc(/C=C2\SCCC2O)c([N+](=O)[O-])c1` (centres unmarked) [Example 57, 2-[4-(3-Hydroxythiolan-2-ylidenemethyl)-3-nitrophenyl]propionic Acid], the inhibition at 10 µM turned out to be 91.6%.

Turning to `CC(C(=O)O)c1ccc(/C=C2\SCCC2O)c(F)c1` (centres unmarked) [Example 61, 2-[3-Fluoro-4-(3-hydroxythiolan-2-ylidenemethyl)phenyl]propionic Acid], the inhibition at 10 µM was 92.8%. On to `CC(C(=O)O)c1ccc(/C=C2\SCCC2O)c(Cl)c1` (centres unmarked) [Example 65, 2-[3-Chloro-4-(3-hydroxythiolan-2-ylidenemethyl)phenyl]propionic Acid], for which the inhibition at 10 µM was found to be 101%. Still for that read-out and setting: to `CC(C(=O)O)c1cccc(/C=C2\SCCC2O)c1` (centres unmarked) [Example 69, 2-[3 (3-Hydroxythiolan-2-ylidenemethyl)phenyl]propionic Acid] belongs 22.8%.

System in another data set: not listed separately
Put plainly: Safety factor (UD30 gastric mucosa injury / ED50 anti-pollakiuria). As to conditions: SD, rat, in vivo. It is filed as in vivo. From the text:
Safety factor was obtained in accordance with the following equation using the ED50 value and UD30 value obtained in the tests for the anti-pollakiuria effect in CPA-induced rat pollakiuria model and the gastric mucosa injury induction action by single oral administration in rats, respectively. Safety factor=UD30 value (mg/kg) for gastric mucosa injury induction action by single oral administration in rats/ED50 value (mg/kg) for anti-pollakiuria effect in CPA-induced rat pollakiuria model
Regarding `CC(C(=O)O)c1ccc(CC2CCCC2=O)cc1` (centres unmarked) [Loxoprofen-Na, reference compound], the Safety factor is given as 14.

The data set is the same for the next values; noted with them: UD30 value (mg/kg) / ED50 value (mg/kg), rats.
Regarding `C[C@H](C(=O)O)c1ccc(/C=C2\SCC[C@@H]2O)cc1` [Example 19-C, (2S,3′S)-2-{4-[3-Hydroxythiolan-(Z)-2-ylidenemethyl]phenyl}propionic Acid], the Safety factor came out at 138.

Another data set relates to gastric mucosa. Put plainly: Gastric mucosa injury induction action by single oral administration in rats. It is filed as in vivo, rat. As to conditions: starved male SD rats, stomach examined after 5 hours, probit method. As for the experimental part: 2. Gastric Mucosa Injury Induction Action by Single Oral Administration in Rats
7-Week old male SD rats were starved for 24 hours, and then used for the test. Five hours after the oral administration of a test substance, the stomach was extracted, and incised along the greater curvature of stomach, and a stomach specimen was fixed in a neutrally buffered 1% formalin solution. The stomach specimen was observed under a stereoscopic microscope, and when specimen had four or more hemorrhagic sores or ulcers having a major axis of 0.5 mm or larger, the result was judged to be positive. […]
Turning to `C[C@H](C(=O)O)c1ccc(/C=C2\SCC[C@@H]2O)cc1` [Example 19-C, (2S,3′S)-2-{4-[3-Hydroxythiolan-(Z)-2-ylidenemethyl]phenyl}propionic Acid], the “UD30 value (gastric mucosa injury)” value worked out at 13.8 mg/kg. The same measure, in the same setting: the figure for `CC(C(=O)O)c1ccc(CC2CCCC2=O)cc1` (centres unmarked) [Loxoprofen-Na, reference compound] is 25.5 mg/kg.
